# Measured values reported in US7262173B2, “Chemosensitizing with liposomes containing oligonucleotides” (Georgetown University, priority 1997, dated 2007).
# Tests used:
# Raf-1 = Raf-1 expression in SQ-20B tumor xenografts after i.v. or intratumoral ODN; assay type: in vivo, human; details: intravenous treatment; compared with untreated controls
# Experimental: FIG. 7: Effects of intravenous administration of LE-ATG-AS raf ODN (SEQ ID NO:1) our Raf-1 expression in normal and tumor tissues. Raf-1 expression was examined in liver, kidneys and SQ-20B tumor xenograft of Balb/c nu/nu mice after i.v. injections of 6 mg/kg daily dose of LE-ATG-AS raf ODN (SEQ ID NO:1) (AS) or LE-ATG-S raf ODN (SEQ ID NO:3) (S) for five consecutive days. Control mice (C) received normal saline. Representative data showing Raf-1 expression in lysates normalized for protein content by immunoprecipitation and immunoblotting (top). Quantification data are shown as mean±s.d. from three mice (bottom).
# FIG. 8: Inhibition of Raf-1 protein expression in SQ-20B tumor xenografts by intratumoral administration of LE-ATG-AS raf ODN (SEQ ID NO:1): Each animal received intratumoral injections of LE-ATG-AS raf ODN (SEQ ID NO:1) (AS) on the right flank and LE-ATG-S raf ODN (SEQ ID NO:3) (S) on the left flank at a dose of 4 mg/kg daily for seven days as explained in the experimental procedures. […] Quantification data shown are mean±s.d., from three representative mice. […]
# For in vivo expression studies, tumor tissue and organs were homogenized in the cell lysis buffer using Polytron homogenizer (Westbury, N.Y., USA). Raf-1 expression was analyzed in tissue homogenates by immunoprecipitation and immunoblotting as described above.
# SQ-20B cells = assay: Intracellular raf ODN stability assay (PC/CHOL/DDAB liposomes); assay type: cell-based, human; details: 10 μM for 4 hours, then 20% FBS medium up to 24 hours; denaturing gel
# Experimental: FIG. 2: (a) Time-course of cellular uptake of LE-ATG-AS raf ODN (SEQ ID NO:1), SQ-20B cells were incubated with ^32P-5 end labeled and an excess of unlabeled LE-ATG-AS raf ODN (SEQ ID NO:1) (10 μM) for indicated times as described in the experimental procedures. Results are mean±s.d from two independent experiments each performed in duplicate, (b) Intracellular stability of LE-ATG-AS raf ODN (SEQ ID NO:1). Cells were incubated with ^32P-end labeled and an excess of unlabeled LE-ATG-AS raf ODN (SEQ ID NO:1) (10 μM in 1% FBS containing medium for […], washed with PBS and then incubations continued in 20% FBS containing medium for 0 hour (lane 2), 2 hours (lane 3), 8 hours (lane 4), 12 hours (lane 5), and 24 hours (lane 6). Cells were lysed and ODNs in various samples were analyzed by denaturing gel electrophoresis as explained in the experimental procedures. Lane 2, radiolabeled control LE-ATG-AS raf ODN (SEQ ID NO: 1); 15-mer, ATG-AS raf ODN (SEQ ID NO:1) migrations of xylene cyanol (XC) and bromophenol blue (BP) are indicated.
# For ODN stability studies, cells were seeded and incubated with 10 μM ^32P-labeled LE-ATG-AS raf ODN (SEQ ID NO:1) or ATG-AS raf ODN (SEQ ID NO:1) (1×10^6 c.p.m./ml) for 4 h at 37° C. in 1% FBS containing medium. […] ODNs were extracted with phenol: chloroform, and the aqueous fractions were collected and aliquots were analyzed by scintillation counting. […]
# [1] = Tissue distribution of raf ODN after i.v. injection; assay type: in vivo, Balb/c nu/nu mice; details: 30 mg/kg i.v., free ODN; data not shown
# Experimental: FIG. 4: Tissue distribution profiles of LE-ATG-AS raf ODN (SEQ ID NO:1).
# Male Balb/c nu/nu mice (Charles River, Raleigh, N.C., USA; 10–12 weeks old) were maintained in the Research Resources Facility of the Georgetown University according to accredited procedure, and fed purina chow and water ad libitum. […] At 5 min, 15 min, 30 min, 1 h, 2 h, 4 h, 8 h, 24 h and 48 h after injection, one animal in each group was bled from the retro-orbital sinus into heparinized tubes under anesthesia, and killed by cervical dislocation.
# The extracts were loaded on to 20% polyacrylamide/3 M urea gels and electrophoresed in TBE buffer. […] The radiolabeled probe was generated by 5′-end-labeling of ATG-S′ raf ODN (SEQ ID NO:3) with γ^32-P-ATP using T4 polynucleotide kinase and purification over Chroma Spin-10 columns (Clontech, Palo Alto, Calif., and USA). […] The autoradiographs were scanned using a computer program (ImageQuant software, Molecular Dynamics, Sunnyvale, Calif., and USA), and the amounts of ATG-AS raf ODN (SEQ ID NO:1) in various samples were calculated by comparison to standards.
substance,measurement,setting,value
"5′-GTG-CTCCATTGATGC-3′ (antisense GTGCTCCATTGATGC; DNA, linkages s1 o12 s1 (s phosphorothioate, o phosphodiester), methylation of C not given here) [ATG-AS raf ODN, antisense ODN to translation initiation site of human c-raf-1 cDNA; one terminal base linkage at each end phosphorothioate]",effect on Raf-1 expression in tumor tissue,Raf-1,no effect
same,intracellular integrity of ODN,SQ-20B cells,no detectable ODN at all time-points
same,only time at which intact ODN seen in various organs,[1],5 min
